Laboratory results: US20240301319A1, “PERFUMING COMPOSITIONS” (FIRMNICH SA, priority 2017, published 2024)
Counter-ions that a name gives are not always drawn.

Experiments:
[1] = Volatility of perfuming compounds (Tables 4 to 10), with top/middle/bottom note type; format: physicochemical
Protocol: In some aspects, the first perfume accord comprises perfuming compounds having a volatility ranging from 70,000 to 100 μg/l in air. In some aspects, perfuming compounds having a volatility ranging from 70,000 to 100 μg/l in air are referred to as “top notes”.
In some aspects, the second perfume accord comprises perfuming compounds having a volatility ranging from 99 to 50 μg/l in air. In some aspects, perfuming compounds having a volatility ranging from 99 to 50 μg/l in air are referred to as “middle notes”.
In some aspects, the third perfume accord comprises perfuming compounds having a volatility ranging from 49 to 0.1 μg/l in air. In some aspects, perfuming compounds having a volatility ranging from 49 to 0.1 μg/l in air are referred to as “bottom notes”.
Tables 4 to 10 describe top, middle and bottom note perfuming compounds for watery, green, fruity, citrus, sweet, gourmand and woody notes respectively.

[2] = Odor threshold and odor value of perfuming compounds (Tables 4 to 10)
[3] = Table 8, perfuming compounds having a sweet note
[4] = Table 8, perfuming compounds having a sweet note, note type by volatility
[5] = Table 9, perfuming compounds having a gourmand note, note type by volatility
[6] = Table 6, perfuming compounds having a fruity note
[7] = Table 6, perfuming compounds having a fruity note, note type by volatility
[8] = note type (Top/Middle/Bottom) by volatility, perfuming compounds having a green note
[9] = perfuming compounds having a green note
[10] = Table 10, perfuming compounds having a woody note, note type by volatility
[11] = Table 4, watery note, top, middle or bottom note
[12] = Table 4, watery note, equals volatility divided by odor threshold

With `CC(=O)c1ccccc1` [1-phenylethanone] the Volatility [1, 3] was 1728.98 μg/l air, the Type [1, 4] was “Top” and the “Odor Threshold” value [2, 3] was 6.61E−03 μg/l air. The “Odor Value” [2, 3] was 2.62E+05.
For `O=Cc1ccc2c(c1)OCO2` [benzo[d][1,3]dioxole-5-carbaldehyde], the Volatility ([1]; Table 9, gourmand note) was 61.82 μg/l air, the Type [1, 5] was “Middle” and the “Odor Threshold” value ([2]; Table 9, gourmand note) was 1.01E−04 μg/l air.
With `C/C=C(\C)C(=O)OCCCCCC` [hexyl (2E)-2-methyl-2-butenoate] the Volatility [1, 6] was 256.81 μg/l air, the Type [1, 7] was “TOP (perfuming compounds having a volatility ranging from 70,000 to 100 μg/l in air are referred to as “top notes”)” and the Volatility [1, 3] was 256.81 μg/l air. The Type [1, 4] was “Top”, the Type [1, 8] was “Top” and the “Volatility (μg/l air)” value [1, 9] was 256.81 μg/l air. The “Odor Threshold” value [2, 3] was 1.16E−02 μg/l air, the “Odor Value” [2, 3] was 2.22E+04 and the “Odor Threshold (μg/l air)” value [2, 9] was 1.16E−02 μg/l air.
For `COC(=O)C1C(C)=CCCC1(C)C` (racemic), the Type [1, 8] was “Top”, the “Volatility (μg/l air)” value [1, 9] was 2010.91 μg/l air and the “Odor Threshold (μg/l air)” value [2, 9] was 1.06E−02 μg/l air.
With `CC(CO)c1ccccc1` (racemic) [(+−)-2-phenyl-1-propanol] the Type [1, 8] was “Top”, the “Volatility (μg/l air)” value [1, 9] was 142.19 μg/l air and the “Odor Threshold (μg/l air)” value [2, 9] was 3.62E−02 μg/l air.
In the case of `CC(=O)/C(C)=C/C1C(C)=CCCC1(C)C` (racemic), the Volatility [1, 6] is reported as 36.33 μg/l air, the Type [1, 7] is reported as “Bottom” and the Type [1, 10] is reported as “Top”. For the same compound, the Volatility ([1]; Table 10, woody note) was 106.28 μg/l air, the “Odor Threshold” value [2, 6] was 1.92E−04 μg/l air and the “Odor Value” [2, 6] was 1.89E+05. The “Odor Threshold” value ([2]; Table 10, woody note) was 5.03E−05 μg/l air.
With `CC/C=C\CCCCC=O` [(Z)-6-NONENAL] the Type [1, 8] was “Top”, the “Volatility (μg/l air)” value [1, 9] was 2431.73 μg/l air and the “Odor Threshold (μg/l air)” value [2, 9] was 2.91E−05 μg/l air.
For `N#CC(=C1CCCCC1)c1ccccc1` [CYCLOHEXYLIDENE(PHENYL)ACETONITRILE], the Type [1, 8] was “Bottom”, the “Volatility (μg/l air)” value [1, 9] was 0.96 μg/l air and the “Odor Threshold (μg/l air)” value [2, 9] was 3.31E−04 μg/l air.
With `CCCCC/C=C\CCC=O` [(Z)-4-DECENAL] the Type [1, 8] was “Top”, the “Volatility (μg/l air)” value [1, 9] was 629.54 μg/l air and the “Odor Threshold (μg/l air)” value [2, 9] was 3.78E−05 μg/l air.
In the case of `O=COCCc1ccccc1` [2-PHENYLETHYL FORMATE], the Volatility [1, 6] is reported as 567.67 μg/l air, the Type [1, 7] is reported as “TOP (perfuming compounds having a volatility ranging from 70,000 to 100 μg/l in air are referred to as “top notes”)” and the “Volatility (μg/l air)” value ([1]; Table 7, citrus note) is reported as 567.67 μg/l air. The Type ([1]; Table 7, citrus note, top, middle or bottom note) was “Top”, the Type [1, 8] was “Top” and the “Volatility (μg/l air)” value [1, 9] was 567.67 μg/l air. For the same compound, the “Odor Threshold (μg/l air)” value ([2]; Table 7, citrus note) was 8.34E−04 μg/l air, the “Odor Value” ([2]; Table 7, citrus note, equals volatility divided by odor threshold) was 6.81E+05 and the “Odor Threshold (μg/l air)” value [2, 9] was 8.34E−04 μg/l air.
With `CCCC(=O)OCC` [ETHYL BUTANOATE] the Volatility [1, 6] was 142519.74 μg/l air, the Type [1, 7] was “TOP (perfuming compounds having a volatility ranging from 70,000 to 100 μg/l in air are referred to as “top notes”)” and the Type [1, 8] was “Top”. The “Volatility (μg/l air)” value [1, 9] was 142519.74 μg/l air and the “Odor Threshold (μg/l air)” value [2, 9] was 3.68E−04 μg/l air.
For `CC(C)c1cccc(C(C)CC=O)c1` (racemic) [(+−)-3-(3-ISOPROPYL-1-PHENYL)BUTANAL], the “Volatility (μg/l air)” value ([1]; Table 4, watery note) was 14.74 μg/l air, the Type [1, 11] was “bottom (perfuming compounds having a volatility ranging from 49 to 0.1 μg/l in air are referred to as “bottom notes”)” and the Type [1, 8] was “Bottom”. The “Volatility (μg/l air)” value [1, 9] was 14.74 μg/l air, the “Odor Threshold (μg/l air)” value ([2]; Table 4, watery note) was 7.71E−04 μg/l air and the “Odor Value” [2, 12] was 1.91E+04. The “Odor Threshold (μg/l air)” value [2, 9] was 7.71E−04 μg/l air.
In the case of `CCCCO` [1-BUTANOL], the Volatility [1, 3] is reported as 17700.00 μg/l air, the Type [1, 4] is reported as “Top” and the Volatility ([1]; Table 9, gourmand note) is reported as 17700.00 μg/l air. For the same compound, the Type [1, 5] was “Top”, the Type [1, 10] was “Top” and the Volatility ([1]; Table 10, woody note) was 17700.00 μg/l air. For the same compound, the Type [1, 8] was “Top”, the “Volatility (μg/l air)” value [1, 9] was 17700.00 μg/l air and the “Odor Threshold” value [2, 3] was 8.70E−02 μg/l air. For the same compound, the “Odor Value” [2, 3] was 2.03E+05, the “Odor Threshold” value ([2]; Table 9, gourmand note) was 8.70E−02 μg/l air and the “Odor Threshold” value ([2]; Table 10, woody note) was 8.70E−02 μg/l air. For the same compound, the “Odor Threshold (μg/l air)” value [2, 9] was 8.70E−02 μg/l air.
With `CCOC(=O)C(=O)C(C)CC` (racemic) [(+−)-ETHYL 3-METHYL-2-OXOPENTANOATE] the Volatility [1, 3] was 2276.17 μg/l air, the Type [1, 4] was “Top” and the Type [1, 8] was “Top”. For the same compound, the “Volatility (μg/l air)” value [1, 9] was 2276.17 μg/l air, the “Odor Threshold” value [2, 3] was 5.06E−04 μg/l air and the “Odor Value” [2, 3] was 4.50E+06. The “Odor Threshold (μg/l air)” value [2, 9] was 5.06E−04 μg/l air.
With `CC(=O)OC/C=C(/C)CCC=C(C)C` [(2Z)-3,7-dimethyl-2,6-octadien-1-yl acetate] the “Volatility (μg/l air)” value ([1]; Table 4, watery note) was 123.21 μg/l air, the Type [1, 11] was “TOP (perfuming compounds having a volatility ranging from 70,000 to 100 μg/l in air are referred to as “top notes”)” and the Volatility [1, 6] was 123.21 μg/l air. For the same compound, the Type [1, 7] was “TOP (perfuming compounds having a volatility ranging from 70,000 to 100 μg/l in air are referred to as “top notes”)”, the “Odor Threshold (μg/l air)” value ([2]; Table 4, watery note) was 6.02E−02 μg/l air and the “Odor Value” [2, 12] was 2.05E+03. For the same compound, the “Odor Threshold” value [2, 6] was 6.02E−02 μg/l air and the “Odor Value” [2, 6] was 2.05E+03.
